This note sets out measurements from patent publication US10870638B2, “Pyridazinone compound or its salt, and herbicide containing it” (ISHIHARA SANGYO KAISHA, LTD., priority 2016, dated 2020).

Holding throughout (assay type): in vivo
Holding throughout (settings): active ingredient amount 31 g/ha, 14th day after application

The subject of experiment [1] is barnyardgrass (Echinochloa crus-qalli L.). The experiment can be described thus: Test Example 2: soil application on the day after sowing, growth inhibition rate on 14th day. The procedure, abridged:
(§1)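 Herbicidal effect is assessed on pot-grown plants after a soil spray applied the day after sowing at prescribed active ingredient rates. Scoring occurs visually at day 14 as growth inhibition (%).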

Experiment [2] deals with corn (Zea mays L.). The experiment is described as above. The procedure, abridged: as §1
The subject of experiment [3] is redroot pigweed (Amaranthus retroflexus L.). The description is as above. The gist of the method: as §1
Experiment [4] relates to soybean (Glycine max Merr.). Described as above. The procedure, abridged:
as §1

Experiment [5] deals with crabgrass (Digitaris sanquinalis L.). The description is as above. The gist of the method:
as §1

Experiment [6] concerns wheat (Triticum aestivum L.). The description is as above. The procedure, abridged:
as §1

Experiment [7] has as its system prickly sida (Sida spinosa L.). The experiment is described as above. The gist of the method:
as §1

For experiment [8], the system named is green foxtail (Setaria viridis L.). The experiment is described as above. The gist of the method: as §1
Experiment [9] relates to rice (Oryza sativa L.). Described as above. The gist of the method: as §1
Experiment [10] deals with velvetleaf (Abutilon theophrasti MEDIC.). Described as above. The procedure, abridged:
as §1

The subject of experiment [11] is barnyardgrass (Echinochloa crus-qalli L.). The experiment can be described thus: Test Example 1: foliar treatment, growth inhibition rate on 14th day. The procedure, abridged: (§2)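 Using a small sprayer, formulated compound in water (0.1 vol % surfactant, 1,000 L/ha) was applied to seedlings grown from seed in upland soil. Fourteen days on, growth state was observed and expressed as percent inhibition from 0 to 100.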

The subject of experiment [12] is italian ryegrass (Lolium multiflorum Lam.). The description is as above. The gist of the method: as §2
Experiment [13] deals with corn (Zea mays L.). Described as above. The procedure, abridged: as §2
Experiment [14] has as its system redroot pigweed (Amaranthus retroflexus L.). The experiment is described as above. The procedure, abridged: as §2
The test system of experiment [15] is soybean (Glycine max Merr.). The experiment is described as above. The gist of the method:
as §2

In experiment [16] the test system is wild oat (Avena fatua L.). The description is as above. The procedure, abridged:
as §2

Experiment [17] concerns wheat (Triticum aestivum L.). The description is as above. The procedure, abridged:
as §2

The subject of experiment [18] is crabgrass (Digitaria sanquinalis L.). The description is as above. The gist of the method: as §2
The subject of experiment [19] is green foxtail (Setaria viridis L.). The experiment is described as above. The gist of the method: as §2
Experiment [20] concerns rice (Oryza sativa L.). Described as above. The procedure, abridged: as §2
The mark [21] stands for this setting: visual, 0 = non-treated, 100 = complete kill.

Take `Cc1ccc(Oc2nc3ccc(Br)cc3o2)cc1-c1c(O)cnn(C)c1=O` [Compound 2-181]: the “Growth inhibition rate (%) Barnyardgrass” value in experiment [1] was found to be 90%; in experiment [11] it was 100%. Moreover, the “Growth inhibition rate (%) Corn” value in the experiment on corn (Zea mays L.) [2] came to 0%; in the experiment on corn (Zea mays L.) [13], 70%. The “Growth inhibition rate (%) Redroot pigweed” value in experiment [3] and in experiment [14] was 0% each time. Besides, the “Growth inhibition rate (%) Soybean” value in experiment [4] and in [15] was 0% each time. Also, the “Growth inhibition rate (%) Crabgrass” value is on record as 0% in [5] and 99% in [18]. The “Growth inhibition rate (%) Wheat” value in experiment [6] turned out to be 0%; in experiment [17], 35%. Besides, in experiment [7], the “Growth inhibition rate (%) Prickly sida” value amounted to 0%. For the same molecule, the “Growth inhibition rate (%) Green foxtail” value came out at 40% in [8] and 100% in experiment [19]. Further, the figures for the “Growth inhibition rate (%) Rice” value with rice (Oryza sativa L.) [9] and in the experiment on rice (Oryza sativa L.) [20] were 20% and 10%, respectively. The “Growth inhibition rate (%) Velvetleaf” value in experiment [10] was determined as 0%. For the same molecule, the “Growth inhibition rate (%) Italian ryegrass” value in experiment [12] came out at 93%. Also, the “Growth inhibition rate (%) Wild oat” value in [16] was found to be 83%.

Regarding `CC(=O)Oc1c(C)nn(C)c(=O)c1-c1cc(Oc2cnc(C(F)(F)F)cn2)ccc1C` [Compound 2-195], the “Growth inhibition rate (%) Barnyardgrass” value worked out at 98% in experiment [1] and 93% in experiment [11]. The “Growth inhibition rate (%) Corn” value is recorded as 0% in the experiment with corn (Zea mays L.) [2] and 83% with corn (Zea mays L.) [13]. In addition, the “Growth inhibition rate (%) Redroot pigweed” value in experiment [3] and in experiment [14] was 0% throughout. In addition, the “Growth inhibition rate (%) Soybean” value is listed as 0% in experiment [4] and 30% in [15]. In addition, the “Growth inhibition rate (%) Crabgrass” value in [5] amounted to 98%; in experiment [18], 90%. Besides, the “Growth inhibition rate (%) Wheat” value came out at 0% in experiment [6] and 35% in experiment [17]. The “Growth inhibition rate (%) Prickly sida” value in experiment [7] was 0%. Also, the “Growth inhibition rate (%) Green foxtail” value turned out to be 99% in [8] and 93% in experiment [19]. The “Growth inhibition rate (%) Rice” value amounted to 20% in the experiment with rice (Oryza sativa L.) [9] and 40% in the experiment with rice (Oryza sativa L.) [20]. Further, the “Growth inhibition rate (%) Velvetleaf” value in experiment [10] is given as 0%. Moreover, in experiment [12], the “Growth inhibition rate (%) Italian ryegrass” value is 85%. In addition, the “Growth inhibition rate (%) Wild oat” value in experiment [16] came out at 90%.

With `Cc1ccc(Oc2ncc(C(F)(F)F)cc2Cl)cc1-c1c(OS(C)(=O)=O)c(C)nn(C)c1=O` [1-62], the “Growth inhibition rate (%) Barnyardgrass” value in [1] and in experiment [11] was 100% in each case. Moreover, the “Growth inhibition rate (%) Corn” value is listed as 0% in the experiment with corn (Zea mays L.) [2] and 100% with corn (Zea mays L.) [13]. Also, the “Growth inhibition rate (%) Redroot pigweed” value in [3] and in experiment [14] was 0% throughout. Besides, the “Growth inhibition rate (%) Soybean” value in [4] and in [15] was 0% in each case. Moreover, the “Growth inhibition rate (%) Crabgrass” value in [5] and in [18] was 100% throughout. Further, the “Growth inhibition rate (%) Wheat” value in experiment [6] is 0%; in experiment [17], 90%. In addition, the “Growth inhibition rate (%) Prickly sida” value in [7] is listed as 0%. Besides, the “Growth inhibition rate (%) Green foxtail” value in experiment [8] turned out to be 99%; in [19], 100%. For the same molecule, the “Growth inhibition rate (%) Rice” value with rice (Oryza sativa L.) [9] turned out to be 20%; with rice (Oryza sativa L.) [20], 88%. The “Growth inhibition rate (%) Velvetleaf” value in experiment [10] turned out to be 0%. Moreover, the “Growth inhibition rate (%) Italian ryegrass” value in [12] was determined as 98%. In experiment [16], the “Growth inhibition rate (%) Wild oat” value is on record as 99%.

As to `Cc1ccc(Oc2cnc3cc(Cl)ccc3n2)cc1-c1c(OC(=O)c2ccccn2)c(C)nn(C)c1=O` [Compound 3-51], the “Growth inhibition rate (%) Barnyardgrass” value in experiment [1] and in experiment [11] (setting [21]) was 99% in each case. Also, the “Growth inhibition rate (%) Corn” value was found to be 0% with corn (Zea mays L.) [2] and 60% in the experiment on corn (Zea mays L.) [13] (setting [21]). Besides, the “Growth inhibition rate (%) Redroot pigweed” value in experiment [3] and in [14] (setting [21]) was 0% throughout. For the same molecule, the “Growth inhibition rate (%) Soybean” value in experiment [4] was 0%; in experiment [15] (setting [21]), 30%. Moreover, the “Growth inhibition rate (%) Crabgrass” value was 95% in experiment [5] and 100% in experiment [18] (setting [21]). In addition, the “Growth inhibition rate (%) Wheat” value in experiment [6] turned out to be 0%; in experiment [17] (setting [21]) it was 99%. Further, the “Growth inhibition rate (%) Prickly sida” value in [7] worked out at 0%. Further, the “Growth inhibition rate (%) Green foxtail” value in [8] and in experiment [19] (setting [21]) was 100% each time. Besides, the “Growth inhibition rate (%) Rice” value is 0% in the experiment on rice (Oryza sativa L.) [9] and 60% in the experiment with rice (Oryza sativa L.) [20] (setting [21]). The “Growth inhibition rate (%) Velvetleaf” value in [10] came to 0%. The “Growth inhibition rate (%) Italian ryegrass” value in experiment [12] (setting [21]) is reported as 99%. Moreover, the “Growth inhibition rate (%) Wild oat” value in experiment [16] (setting [21]) is recorded as 99%.

For the molecule `CCc1ccc(Oc2nc3ccccc3o2)cc1-c1c(O)c(C)nn(C)c1=O` [Compound 2-166], the “Growth inhibition rate (%) Barnyardgrass” value came out at 99% in experiment [1] and 100% in experiment [11]. The “Growth inhibition rate (%) Corn” value in the experiment with corn (Zea mays L.) [2] is reported as 0%; with corn (Zea mays L.) [13], 80%. For the same molecule, the “Growth inhibition rate (%) Redroot pigweed” value in experiment [3] is 0%; in [14], 20%. Further, the results for the “Growth inhibition rate (%) Soybean” value in [4] and in experiment [15] were 0% and 30%, respectively. For the same molecule, the “Growth inhibition rate (%) Crabgrass” value was 95% in experiment [5] and 88% in experiment [18]. Besides, the results for the “Growth inhibition rate (%) Wheat” value in [6] and in experiment [17] were 0% and 10%, respectively. Also, the “Growth inhibition rate (%) Prickly sida” value in experiment [7] amounted to 0%. Besides, the “Growth inhibition rate (%) Green foxtail” value in [8] and in [19] was 100% throughout. Also, the figures for the “Growth inhibition rate (%) Rice” value in the experiment on rice (Oryza sativa L.) [9] and with rice (Oryza sativa L.) [20] were 70% and 88%, respectively. In addition, in [10], the “Growth inhibition rate (%) Velvetleaf” value was determined as 0%. Besides, the “Growth inhibition rate (%) Italian ryegrass” value in experiment [12] came to 99%. The “Growth inhibition rate (%) Wild oat” value in [16] stood at 40%.

`CCc1ccc(Oc2ncc(C(F)(F)F)cc2Cl)cc1-c1c(OC(C)=O)cnn(CC)c1=O` [1-174]: the “Growth inhibition rate (%) Barnyardgrass” value in [1] and in experiment [11] was 100% each time. In addition, the “Growth inhibition rate (%) Corn” value worked out at 0% in the experiment on corn (Zea mays L.) [2] and 100% in the experiment on corn (Zea mays L.) [13]. Besides, the “Growth inhibition rate (%) Redroot pigweed” value in [3] and in experiment [14] was 0% in each case. The “Growth inhibition rate (%) Soybean” value in experiment [4] and in experiment [15] was 0% in each case. Moreover, the “Growth inhibition rate (%) Crabgrass” value in experiment [5] and in experiment [18] was 100% each time. The “Growth inhibition rate (%) Wheat” value in experiment [6] turned out to be 0%; in experiment [17] it was 75%. The “Growth inhibition rate (%) Prickly sida” value in experiment [7] is 0%. The “Growth inhibition rate (%) Green foxtail” value in [8] and in experiment [19] was 100% throughout. Besides, the “Growth inhibition rate (%) Rice” value in the experiment with rice (Oryza sativa L.) [9] was 0%; in the experiment on rice (Oryza sativa L.) [20], 20%. In addition, the “Growth inhibition rate (%) Velvetleaf” value in experiment [10] came to 0%. The “Growth inhibition rate (%) Italian ryegrass” value in experiment [12] is 93%. Further, the “Growth inhibition rate (%) Wild oat” value in [16] is recorded as 100%.

For `Cn1ncc(O)c(-c2cc(Oc3ncc(C(F)(F)F)cc3Cl)ccc2OC(F)(F)F)c1=O` [1-162], the “Growth inhibition rate (%) Barnyardgrass” value in experiment [1] and in experiment [11] was 100% throughout. Moreover, the “Growth inhibition rate (%) Corn” value with corn (Zea mays L.) [2] turned out to be 40%; with corn (Zea mays L.) [13] it was 98%. Also, the “Growth inhibition rate (%) Redroot pigweed” value in experiment [3] and in experiment [14] was 0% each time. In addition, the “Growth inhibition rate (%) Soybean” value in experiment [4] and in [15] was 0% throughout. The “Growth inhibition rate (%) Crabgrass” value in experiment [5] and in experiment [18] was 100% throughout. The “Growth inhibition rate (%) Wheat” value in experiment [6] is on record as 0%; in [17], 99%. For the same molecule, the “Growth inhibition rate (%) Prickly sida” value in [7] was 0%. Moreover, the “Growth inhibition rate (%) Green foxtail” value in experiment [8] and in experiment [19] was 100% throughout. Also, the “Growth inhibition rate (%) Rice” value is recorded as 95% in the experiment with rice (Oryza sativa L.) [9] and 93% in the experiment on rice (Oryza sativa L.) [20]. Also, in [10], the “Growth inhibition rate (%) Velvetleaf” value came to 0%. In [12], the “Growth inhibition rate (%) Italian ryegrass” value is reported as 99%. In [16], the “Growth inhibition rate (%) Wild oat” value is listed as 100%.
